This is an account of results in PMC11589101, “Profiling the endocrine-disrupting properties of triazines, triazoles, and short-chain PFAS” (Toxicological Sciences, 2024).

The test system of one data set is GH3.TRE cells. In words: Resazurine cell viability assay in GH3.TRE cells. Particulars: 100 μM. The method, then:
Exposure medium was added to the cells immediately after seeding. […] Exposure conditions, resazurine assay, and luciferase measurements were similar as described for the VM7Luc4E2 cells.
For orientation: The colour change of resazurin is a common sign of viable cells or microbes.

Data set [1] deals with steroidogenesis in H295R cells. The format is cell-based, human. Particulars: 48 h; for increased levels of progesterone and 17α-OH-progesterone compared with vehicle-treated controls: H295R. The method, then:
(§1) All experiments were performed using cells in passages 5 to 10. First, the highest noncytotoxic concentration (<10% decrease in viability) was determined for each compound with MTT assays. Next, the levels of 13 steroid hormones were determined in the medium after exposure of the H295R cells to the highest noncytotoxic concentration using LC-MS/MS. These concentrations were tested in triplicate (n = 3) in 3 independent experiments (N = 3), and all 9 samples were measured in LC-MS/MS. […] These dilution series were tested in 3 independent experiments (N = 3), with triplicate exposures in each of these experiments (n = 3). Supernatants of the triplicate exposures per experiment were pooled after the 48 h of exposure and the 3 pooled samples were measured with LC-MS/MS. This was done to keep the number of LC-MS/MS measurements manageable.
The exposure medium was prepared by diluting stock solutions 1,000× in the cell culture medium to obtain a final concentration of 0.1% of the solvent. Exposure was started by replacing cell culture medium with the exposure medium. […] On a separate quality control plate, cells were exposed to 10 μM forskolin (Sigma-Aldrich) and 1 μM prochloraz (Sigma-Aldrich) to serve as positive control for increased and decreased steroid hormone secretion, respectively. Exposure was started by replacing the culture medium in the cell culture plates with the exposure medium.
(§2) After 48 h of exposure, the supernatant medium from each well was transferred to the wells of a clean 48-well plate, and that plate was stored at −80 °C for later steroid measurement. MTT assays were performed by adding 500 μl of 0.5 mg/ml MTT (3-(4,5-dimethylthiazol-2-yl)-2,5-diphenyltetrazolium bromide; Sigma-Aldrich) solution in medium to each well of the 24-well cell culture plate and incubating for 1 h at 37 °C with 5% CO2. After incubation, the MTT solution was discarded and 500 μl of DMSO was added to each well to lyse the cells and dissolve the formazan crystals. Plates were shaken at 700 rpm for 10 min and absorbance was measured at 560 nm wavelength.
Hormones were concentrated from supernatants by solid phase extraction using Bond Elut Plexa cartridges, 30 mg sorbent, 1.8 ml (Agilent Technologies, Santa Clara, CA, United States). The cartridges were conditioned with 1 ml of 0.5% formic acid in methanol, and subsequent addition of 1 ml of 0.5% formic acid in water. A mix of 100 μl of H295R medium sample in 1 ml of 2% formic acid in water and 50 μl of isotopically labeled internal standards mix (Table S1) was loaded on the cartridges. These were then washed with 1 ml of water followed by 1 ml of water–methanol mixture (70:30, v/v). Cartridges were dried by vacuum and the hormones were eluted with 700 μl of methanol into 96-well-deep well polypropylene plates. Eluates were evaporated to dryness during approximately 2 h in a refrigerated CentriVap vacuum concentrator and reconstituted in 150 μl of water–methanol mixture (1:1, v/v). Additionally, a serial 12-point dilution series of a mix of native steroid hormones was prepared to fit a calibration curve in order to quantify steroid concentrations.
The steroid hormones were separated prior to MS measurements on a Kinetex C18 LC Column (2.6 μm, 100 × 2.1 mm; Phenomenex, CA, United States) coupled to an Exion LC system (SCIEX, Framingham, MA, United States). The mobile phase consisted of 0.2 mM NH4F in water and pure methanol and was delivered at a flow rate of 0.6 ml/min in a gradient elution mode. The injection volume was 10 μl.
The LC-MS/MS raw data were processed using AB Sciex OS Analyst version 1.6.2 (SCIEX, Framingham, MA, United States) to calculate fold changes by dividing the measured hormone concentrations by the hormone concentrations in the vehicle controls. The fold changes were used to fit a concentration–response curve in GraphPad Prism using the same model as in the reporter gene assays, and the ECIR1.5 was estimated for each compound.

Data set [2] has as its system AR-Ecoscreen-GR-KO M1 cells. In words: Resazurine cell viability assay in AR-Ecoscreen-GR-KO M1 cells. Particulars: 100 μM, 24 h. The method, then:
The cell culture medium was discarded and replaced with 100 μl of fresh assay medium. […] Exposure conditions (24 h; 37 °C; 5% CO2), resazurine assay, and luciferase measurements were similar to described for the VM7Luc4E2 cells.

The test system of data set [3] is thyroid hormone receptor (TR). In words: TR-Luc reporter gene assay, antagonism (coexposure with 110 pM T3). The note with it: for TR antagonism % max combined: coexposure with 110 pM T3; for IC50 / TR antagonism IC10: GH3.TRE cells, coexposed with 110 pM T3, 24 h. The class given is cell-based.
Another data set relates to H295R cells. In words: MTT cell viability assay in H295R cells. The format is cell-based, human. The note with it: 48 h; for decrease in cell viability at highest exposure concentration: 25 μM; for highest exposure concentration with <10% decrease in cell viability: H295R cells. The method, then: as §1, with “For the H295R assay, the culturing and exposure of cells were performed according to OECD Test Guideline No. 456 ([OECD 2011]). All” for “All”
as §2, with “wavelength. Concentrations causing >10% decrease in cell viability were excluded from the hormone analysis, and test compounds were retested at a lower concentration.” for “wavelength.”
For orientation: Tetrazolium assays rely on reduction of a dye to a coloured formazan, in cell work by metabolically active cells.

Data set [4] has as its target T1, human transthyretin (TTR) (Homo sapiens, UniProt P02766). In words: FITC-T4 TTR-binding assay, screening method. The note with it: screening method; read-out: IC50 TTR-binding assay, Screening Method. The method, then: (§3) All incubations were performed at room temperature.
In the screening tests, 48 μl of Tris-HCl buffer (pH 8.0) was added to each well of black low-binding 96-well plates. Two microliters of each test compound dissolved in their respective solvent was added to each well and the plate was shaken at 600 rpm for 5 min. […] Fluorescence was measured again to check for possible autofluorescence or quenching by the test compound.
(§4) Fluorescence enhancement was determined for each well by subtracting its relative fluorescence units (RFU) before TTR addition from its RFUs after TTR addition. The resulting values were normalized to percentages of the vehicle control. A concentration–response curve was fitted through the data using the same model as in the reporter gene assays.

Data set [5] concerns the target T1, human transthyretin (TTR). In words: FITC-T4 TTR-binding assay, initial (original) method. Particulars: for IC10 competing with FITC-T4 for binding to TTR / IC50: initial method, 110 nM FITC-T4, 30 nM TTR; for IC50: read-out: IC50 competing with FITC-T4 for binding to TTR. The procedure:
as §3, §4
After 15 min of incubation, fluorescence was measured and fluorescence enhancement was calculated by subtracting RFU without TTR from RFU with TTR. Further data analysis was similar to the screening assays.

The mark [6] stands for this setting: highest noncytotoxic exposure concentration.

As to `CCCC1COC(Cn2cncn2)(c2ccc(Cl)cc2Cl)O1` (stereo not shown) [Propiconazole], the cytotoxicity entry with GH3.TRE cells is “More than 10%”. Besides, the “effect on steroid hormone levels compared with vehicle-treated controls” value (“effect … compared with vehicle-treated controls” for short) in data set [1] (setting [6]) is reported as “no effect on androgen levels, but showed decreased levels of corticosteroids”. Further, the “increased levels of 17α-OH-progesterone compared with vehicle-treated controls” value in data set [1] (setting [6]) is recorded as “more than 8 fold”. In data set [2], the “cytotoxicity in the resazurine assay” value was “significant cytotoxicity”. Further, the “TR antagonism % max combined” value in data set [3] (0.3 uM) is reported as 96.03%; in data set [3] (1 uM), 99.85%; in data set [3] (3 uM), 100.91%; in data set [3] (10 uM) it was 76.92%; in data set [3] (30 uM), 33.08%. In addition, in data set [3], the IC50 was 20100 nM. In addition, the “TR antagonism IC10” value in data set [3] came out at 6100 nM.
As to `NC(Cn1cncn1)C(=O)O` (stereo not shown) [Triazole alanine], the “decrease in cell viability at highest exposure concentration” value in the data set on H295R cells is given as at most 10%.
For `Nc1nc(N)[nH]c(=O)n1` [Ammeline], in the data set on H295R cells, the “decrease in cell viability at highest exposure concentration” value is at most 10%.
As for `CC(C)(C)C(O)C(Oc1ccc(Cl)cc1)n1cncn1` (stereo not shown) [Triadimenol], the cytotoxicity entry in the data set with GH3.TRE cells (rat, 24 h) was “More than 10%”. Moreover, the “effect … compared with vehicle-treated controls” value in data set [1] (setting [6]) is “decreased estrogen and corticosteroid levels”. The “TR antagonism % max combined” value is 102.48% in data set [3] (0.3 uM); 98.41% in data set [3] (1 uM); 105.58% in data set [3] (3 uM); 76.69% in data set [3] (10 uM); 36.13% in data set [3] (30 uM). This compound also showed an IC50 in data set [3] of 21300 nM. Moreover, the “TR antagonism IC10” value in data set [3] came out at 6300 nM.
On to `FC(F)C(F)(F)OCC(Cn1cncn1)c1ccc(Cl)cc1Cl` (stereo not shown) [Tetraconazole], for which the cytotoxicity result in the data set on GH3.TRE cells (rat, 24 h) is reported as “More than 10%”. Also, the “increased levels of progesterone and 17α-OH-progesterone compared with vehicle-treated controls” value in data set [1] was “up to 3.5 fold”. In data set [1] (setting [6]), the “effect … compared with vehicle-treated controls” value is “increased levels of progesterone and decreased levels of androgens, estrogens, and corticosteroids”. Besides, the “highest exposure concentration with <10% decrease in cell viability” value in the data set on H295R cells turned out to be 30 µM.
As for `O=C(O)C(F)(F)C(F)(F)C(F)(F)C(F)(F)C(F)(F)C(F)(F)C(F)(F)F` [PFOA, Perfluorooactanoic acid], the IC50 in data set [4] and in data set [5] was 280 nM throughout. For the same compound, the “% FITCT4 bound to TTR” value was 82.1607% in data set [5] (0.1 uM); 45.526% in data set [5] (0.3 uM); 17.6477% in data set [5] (1 uM); 6.188% in data set [5] (3 uM); 2.364% in data set [5] (10 uM); 0.3274% in data set [5] (30 uM). For the same compound, in data set [5] (100 uM), the “% FITCT4 bound to TTR” value is 0.2557%. In addition, the “IC10 competing with FITC-T4 for binding to TTR” value (from here on “IC10 competing with FITC-T4”) in data set [5] was 53 nM.
For `O=S(=O)(O)C(F)(F)C(F)(F)C(F)(F)C(F)(F)F` [PFBS, Perfluorobutane sulfonic acid], the figures for the IC50 in data set [4] and in data set [5] were 8200 nM and 8300 nM, respectively. The “% FITCT4 bound to TTR” value in data set [5] (0.1 uM) is recorded as 97.3072%; in data set [5] (0.3 uM) it was 93.7406%; in data set [5] (1 uM) it was 89.6282%; in data set [5] (3 uM), 73.6529%; in data set [5] (10 uM), 44.4619%; in data set [5] (30 uM), 21.5802%. The “% FITCT4 bound to TTR” value in data set [5] (100 uM) was 11.5263%. Also, the “IC10 competing with FITC-T4” value in data set [5] was determined as 820 nM.
Take `CC(C1CC1)C(O)(Cn1cncn1)c1ccc(Cl)cc1` (stereo not shown) [Cyproconazole]: the cytotoxicity entry with GH3.TRE cells (rat, 24 h) is listed as “More than 10%”. In addition, the “increased levels of progesterone and 17α-OH-progesterone compared with vehicle-treated controls” value in data set [1] is “up to 3.5 fold”. In addition, the “effect … compared with vehicle-treated controls” value in data set [1] (setting [6]) was “increased levels of progesterone and decreased levels of androgens, estrogens, and corticosteroids”.
For the compound `O=S(=O)(O)C(F)(F)C(F)(F)C(F)(F)C(F)(F)C(F)(F)C(F)(F)C(F)(F)C(F)(F)F` [PFOS, Perfluorooctane sulfonic acid], the IC50 in data set [4] stood at 190 nM; in data set [5], 210 nM. Moreover, the “% FITCT4 bound to TTR” value in data set [5] (0.1 uM) was 75.2122%; in data set [5] (0.3 uM), 36.6572%; in data set [5] (1 uM), 10.1163%; in data set [5] (3 uM) it was 2.093%; in data set [5] (10 uM), 0.8236%; in data set [5] (30 uM) it was 1.548%. Further, in data set [5] (100 uM), the “% FITCT4 bound to TTR” value is reported as -1.121%. Also, the “IC10 competing with FITC-T4” value in data set [5] is 47 nM.
As to `CC(C)(C)C(O)(CCc1ccc(Cl)cc1)Cn1cncn1` (stereo not shown) [Tebuconazole], in the data set on GH3.TRE cells, the cytotoxicity result is listed as “More than 10%”. Moreover, the “increased levels of progesterone and 17α-OH-progesterone compared with vehicle-treated controls” value in data set [1] is “up to 3.5 fold”. Besides, in data set [1] (setting [6]), the “effect … compared with vehicle-treated controls” value is “increased levels of progesterone and decreased levels of androgens, estrogens, and corticosteroids”. Also, the “cytotoxicity in the resazurine assay” value in data set [2] was “significant cytotoxicity”. In the data set on H295R cells, the “highest exposure concentration with <10% decrease in cell viability” value came to 30 µM.

A word on the IC50: it is the concentration at which inhibition is half-maximal.
